Data: patent US6187552A, “Method for identifying inhibitors of JAK2/cytokine receptor binding” (Pharmacia & Upjohn Company, priority 1998, dated 2001)

System: βc in human eosinophils
Test: Tyrosine phosphorylation of βc in human eosinophils stimulated with IL-5 (immunoblot)
Type: cell-based
Details: FIG. 2
Procedure: Eosinophils were isolated from human whole blood or granulocyte leukapheresis packs obtained from Pharmacia and Upjohn Clinical Research Unit--Kalamazoo, Mich. Only blood from donors who had >5% peripheral blood eosinophils was used, while leukapheresis donors usually had 3-5% eosinophils. One unit of whole blood was divided among 50-ml polypropylene centrifuge tubes and centrifuged for 20 minutes at 300×g at room temperature (RT). The plasma was removed and 50 ml were centrifuged at 2500×g for 15 minutes at RT to remove platelets. The resulting platelet poor plasma (ppp) was diluted 1:4 in normal saline.
Immediately after purification, eosinophils were resuspended at 2×10^7 cells/ml in RPMI 1640 medium (GibcoBRL, Gaithersburg, Md.) supplemented with 1% fetal bovine serum (FBS, GibcoBRL, Gaithersburg,Md.) and incubated 2 min at 37°. Recombinant human IL-5 (Biosource, Camarillo, Calif.) diluted in PBS with 0.1% bovine serum albumin was added at 12.5 ng/ml for various times using 1×10^7 cells per data point. Tubes were placed on ice and 10 volumes of PBS with 0.1 mM sodium orthovanadate were added to each tube. Eosinophils were pelleted by centrifugation at 300×g and resuspended in 0.6 ml lysis buffer (20 mM Tris-Cl, pH 7.4, 100 mM NaCl, 10 mM sodium pyrophosphate, 2 mM EDTA, 50 mM NaF, 1 mM sodium orthovanadate, 3% Triton X-100) with protease inhibitors (10 μg/ml aprotinin, 10 μg/ml leupeptin, and 0.2 mM phenylmethylsulfonyl fluoride).
After incubation on ice for 15 min, debris was pelleted by centrifugation at 16,000×g. βc was immunoprecipitated from the lysate by rotating overnight at 4° with a 1:300 dilution of anti-βcantibody (Upstate Biotechnology, Lake Placid, N.Y.). Twenty microliters of protein A-Sepharose (Pharmacia Biotech, Uppsala, Sweden) were added to each lysate, and the incubation was continued one hour. […]

## IL-5: Recombinant human IL-5 (Biosource)
12.5 ng/ml human IL-5, 37° C.
  time of peak tyrosine phosphorylation of βc: 5 to 10 min
  time to tyrosine phosphorylation of βc: ≤ 1 min
12.5 ng/ml human IL-5, continued presence
  time by which dephosphorylation was evident: ≤ 30 min
